Where two headings read alike, the source gives them in different places.
Key:
[1] = test system: R848-induced TNFα production by human peripheral blood mononuclear cells (PBMCs); assay: R848 Induced TNFα in Human PBMC Assay; type: cell-based
[2] = biological target: human IRAK4 FL (Full Length) (Homo sapiens (Human), UniProt Q9NWZ3); assay: IRAK4 Enzymatic DELFIA Assay, Protocol A; type: biochemical
[3] = Homo sapiens, PBMC, 3 h, read-out: R848-induced TNFa PBMC IC50 (nM)
[4] = human IRAK4 FL, 0.6 mM ATP (KM), read-out: IRAK4 DELFIA Protocol A IC50
[5] = human PBMC, absence of serum, 3 hours, read-out: R848-induced TNFa PBMC IC50

Sequence of human IRAK4 FL (Full Length) (Q9NWZ3 whole entry): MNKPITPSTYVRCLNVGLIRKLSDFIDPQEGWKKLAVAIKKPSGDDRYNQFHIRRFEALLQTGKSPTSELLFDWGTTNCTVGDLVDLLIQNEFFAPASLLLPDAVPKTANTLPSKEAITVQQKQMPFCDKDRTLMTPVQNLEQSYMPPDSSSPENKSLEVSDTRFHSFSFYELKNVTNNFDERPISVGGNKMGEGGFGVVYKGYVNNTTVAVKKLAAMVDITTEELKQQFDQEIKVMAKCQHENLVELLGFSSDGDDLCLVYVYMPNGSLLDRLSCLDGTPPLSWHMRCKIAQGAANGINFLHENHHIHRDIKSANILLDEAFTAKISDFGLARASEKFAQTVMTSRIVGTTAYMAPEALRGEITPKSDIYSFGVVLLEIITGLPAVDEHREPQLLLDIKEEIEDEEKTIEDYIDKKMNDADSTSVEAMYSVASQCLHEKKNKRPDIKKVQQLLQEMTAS

| SMILES | IC50 [1, 3] [nM] | IC50 [2, 4] [nM] | IC50 [1, 5] [nM] | IC50 [2] [nM] |
| --- | --- | --- | --- | --- |
| COc1cc2c(OC[C@@H]3C[C@@H](CC(F)(F)F)C(=O)N3)nccc2cc1C(N)=O [Example 267, 7-methoxy-1-{[(2S,4S)-5-oxo-4-(2,2,2-trifluoroethyl)pyrrolidin-2-yl]methoxy}isoquinoline-6-carboxamide] | 158 | 15 | – | – |
| COc1cc2c(OC[C@@H]3C[C@](C)(F)C(=O)N3)ccnc2cc1C(N)=O [Example 268, 4-{[(2S,4S)-4-fluoro-4-methyl-5-oxopyrrolidin-2-yl]methoxy}-6-methoxyquinoline-7-carboxamide] | 175 | 1.4 | – | – |
| CC(C)Oc1cc2c(OC[C@@H]3C[C@](C)(F)C(=O)N3)ccnc2cc1C(N)=O [Example 269, 4-{[(2S,4S)-4-fluoro-4-methyl-5-oxopyrrolidin-2-yl]methoxy}-6-(propan-2-yloxy)quinoline-7-carboxamide] | 104 | 0.6 | – | – |
| COc1cc2c(OC[C@H]3NC(=O)[C@@H](F)[C@H]3C)nccc2cc1C#N [Example 272, 1-{[(2S,3S,4S)-4-fluoro-3-methyl-5-oxopyrrolidin-2-yl]methoxy}-7-methoxyisoquinoline-6-carbonitrile] | 2470 | 432 | – | – |
| COc1cc2c(OC[C@@H]3C[C@@](F)(CCF)C(=O)N3)ccnc2cc1C(N)=O [Example 274, 4-{[(2S,4R)-4-fluoro-4-(2-fluoroethyl)-5-oxopyrrolidin-2-yl]methoxy}-6-methoxyquinoline-7-carboxamide] | 748 | 2.2 | – | – |
| COc1cc2c(OC[C@H]3C[C@@H](F)C(=O)N3)nccc2cc1C(N)=O [Example 275, 1-{[(2R,4R)-4-fluoro-5-oxopyrrolidin-2-yl]methoxy}-7-methoxyisoquinoline-6-carboxamide] | 5140 | 119 | – | – |
| COc1cc2c(OC[C@@H]3C[C@@](F)(CCF)C(=O)N3)nccc2cc1C(N)=O [Example 276, 1-{[(2S,4R)-4-fluoro-4-(2-fluoroethyl)-5-oxopyrrolidin-2-yl]methoxy}-7-methoxyisoquinoline-6-carboxamide] | 107 | 4.1 | – | – |
| CCOc1cc2c(OC[C@@H]3C[C@](C)(F)C(=O)N3)nccc2cc1C(N)=O [Example 278, 7-ethoxy-1-{[(2S,4S)-4-fluoro-4-methyl-5-oxopyrrolidin-2-yl]methoxy}isoquinoline-6-carboxamide] | 299 | 8.5 | – | – |
| CCOc1cc2c(OC[C@H]3NC(=O)[C@@H](F)[C@H]3C)ccnc2cc1C(N)=O [Example 279, 6-ethoxy-4-{[(2S,3S,4S)-4-fluoro-3-methyl-5-oxopyrrolidin-2-yl]methoxy}quinoline-7-carboxamide] | 212 | 1.2 | – | – |
| C[C@@H]1[C@H](F)C(=O)N[C@@H]1COc1nccc2cc(C(N)=O)c(OC3CC3)cc12 [Example 281, 7-(cyclopropyloxy)-1-{[(2S,3S,4S)-4-fluoro-3-methyl-5-oxopyrrolidin-2-yl]methoxy}isoquinoline-6-carboxamide] | – | 11 | 127 | – |
| CCOc1cc2c(OC[C@H]3NC(=O)[C@@H]4C[C@H]34)nccc2cc1C(N)=O [Example 282, 7-ethoxy-1-{[(1S,2S,5R)-4-oxo-3-azabicyclo[3.1.0]hex-2-yl]methoxy}isoquinoline-6-carboxamide] | 191 | 11 | – | – |
| COc1cc2c(OC[C@H]3NC(=O)[C@H]4[C@@H]3C4(Cl)Cl)nccc2cc1C(N)=O [Example 311, 1-{[(1S,2S,5R)-6,6-dichloro-4-oxo-3-azabicyclo[3.1.0]hex-2-yl]methoxy}-7-methoxyisoquinoline-6-carboxamide] | 1080 | 229 | – | – |
| CCC[C@@H]1CC(=O)N[C@@H]1COc1nccc2cc(C(N)=O)c(OC)cc12 [Example 312, 7-methoxy-1-{[(2S,3R)-5-oxo-3-propylpyrrolidin-2-yl]methoxy}isoquinoline-6-carboxamide] | 26 | 1.3 | – | – |
| COC[C@@H]1[C@H]2C(=O)N[C@H](COc3nccc4cc(C(N)=O)c(OC)cc34)[C@@H]12 [Example 313, 7-methoxy-1-{[(1S,2S,5S)-6-(methoxymethyl)-4-oxo-3-azabicyclo[3.1.0]hex-2-yl]methoxy}isoquinoline-6-carboxamide] | 1590 | 210 | – | – |
| COC[C@H]1[C@H]2C(=O)N[C@H](COc3nccc4cc(C(N)=O)c(OC)cc34)[C@@H]12 [Example 314, 7-methoxy-1-{[(1S,2S,5S)-6-(methoxymethyl)-4-oxo-3-azabicyclo[3.1.0]hex-2-yl]methoxy}isoquinoline-6-carboxamide] | 8360 | 1980 | – | – |
| COc1cc2c(OC[C@H]3NC(=O)[C@@H]4[C@@H](F)[C@@H]43)nccc2cc1C(N)=O [Example 315, 1-{[(1S,2S,5R)-6-fluoro-4-oxo-3-azabicyclo[3.1.0]hex-2-yl]methoxy}-7-methoxyisoquinoline-6-carboxamide] | 45 | 1.5 | – | – |

| SMILES | IC50 [1, 3] [nM] | IC50 [2, 4] [nM] | IC50 [1, 5] [nM] | IC50 [2] [nM] |
| --- | --- | --- | --- | --- |
| CC[C@@H]1[C@H](F)C(=O)N[C@@H]1COc1ccnc2cc(C(N)=O)c(OC)cc12 [Example 316, 4-{[(2S,3S,4S)-3-ethyl-4-fluoro-5-oxopyrrolidin-2-yl]methoxy}-6-methoxyquinoline-7-carboxamide] | 464 | 129 | – | – |
| COc1cc2c(OC[C@H]3NC(=O)[C@]4(F)C[C@H]34)nccc2cc1C(N)=O [Example 317, 1-{[(1R,2S,5S)-5-fluoro-4-oxo-3-azabicyclo[3.1.0]hex-2-yl]methoxy}-7-methoxyisoquinoline-6-carboxamide] | – | – | 22 | 0.6 |
| C#CCOc1cc2c(OC[C@@H]3CCC(=O)N3)nccc2cc1C(N)=O [Example 318, 1-{[(2S)-5-oxopyrrolidin-2-yl]methoxy}-7-(prop-2-yn-1-yloxy)isoquinoline-6-carboxamide] | 17200 | 1940 | – | – |
| C=C=COc1cc2c(OC[C@@H]3CCC(=O)N3)nccc2cc1C(N)=O [Example 319, 1-{[(2S)-5-oxopyrrolidin-2-yl]methoxy}-7-(propadienyloxy)isoquinoline-6-carboxamide] | 11000 | 1950 | – | – |
| COc1cc2c(OC[C@H]3NC(=O)[C@@H]4[C@@H](C(F)F)[C@@H]43)nccc2cc1C(N)=O [Example 320, 1-{[(1R,2S,5S)-6-(difluoromethyl)-4-oxo-3-azabicyclo[3.1.0]hex-2-yl]methoxy}-7-methoxyisoquinoline-6-carboxamide] | 11 | 0.8 | – | – |
| COc1cc2c(OC[C@H]3NC(=O)[C@]4(F)CC[C@H]34)nccc2cc1C(N)=O [Example 322, 1-{[(1R,2S,5S)-5-fluoro-4-oxo-3-azabicyclo[3.2.0]hept-2-yl]methoxy}-7-methoxyisoquinoline-6-carboxamide] | 26 | 6.1 | – | – |
| COc1cc2c(OC[C@H]3NC(=O)[C@@]4(F)[C@@H]3[C@@H]4C)ccnc2cc1C(N)=O [Example 323, 4-{[(1R,2S,5S)-5-fluoro-6-methyl-4-oxo-3-azabicyclo[3.1.0]hex-2-yl]methoxy}-6-methoxyquinoline-7-carboxamide] | 30 | 0.2 | – | – |
| COc1cc2c(OC[C@H]3NC(=O)[C@@H]4[C@@H](F)[C@@H]43)ccnc2cc1C(N)=O [Example 324, 4-{[(1S,2S,5R)-6-fluoro-4-oxo-3-azabicyclo[3.1.0]hex-2-yl]methoxy}-6-methoxyquinoline-7-carboxamide] | 277 | 0.6 | – | – |
| COc1cc2c(OC[C@H]3NC(=O)[C@]4(F)C[C@H]34)ccnc2cc1C(N)=O [Example 325, 4-{[(1R,2S,5S)-5-fluoro-4-oxo-3-azabicyclo[3.1.0]hex-2-yl]methoxy}-6-methoxyquinoline-7-carboxamide] | 87 | 0.4 | – | – |
| COc1cc2c(OC[C@H]3NC(=O)[C@@H]4C[C@H]34)ccnc2cc1C(N)=O [Example 326, 6-methoxy-4-{[(1S,2S,5R)-4-oxo-3-azabicyclo[3.1.0]hex-2-yl]methoxy}quinoline-7-carboxamide] | 1200 | 1.2 | – | – |
| COc1cc2c(OC[C@H]3NC(=O)[C@@H]4[C@@H](CO)[C@@H]43)nccc2cc1C(N)=O [Example 327, 1-{[(1S,2S,5S)-6-(hydroxymethyl)-4-oxo-3-azabicyclo[3.1.0]hex-2-yl]methoxy}-7-methoxyisoquinoline-6-carboxamide] | 3310 | 20 | – | – |
| C=C[C@H]1CC(=O)N[C@@H]1COc1nccc2cc(C(N)=O)c(OC)cc12 [Example 329, 1-{[(2S,3R)-3-ethenyl-5-oxopyrrolidin-2-yl]methoxy}-7-methoxyisoquinoline-6-carboxamide] | 252 | 13 | – | – |
| COc1cc2c(OC[C@H]3NC(=O)CC34CC4)nccc2cc1C(N)=O [Example 330, 7-methoxy-1-{[(4S)-6-oxo-5-azaspiro[2.4]hept-4-yl]methoxy}isoquinoline-6-carboxamide] | 134 | 14 | – | – |
| COc1cc2c(OC[C@H]3NC(=O)[C@@H]4[C@@H](CF)[C@@H]43)ccnc2cc1C(N)=O [Example 333, 4-{[(1R,2S,5S)-6-(fluoromethyl)-4-oxo-3-azabicyclo[3.1.0]hex-2-yl]methoxy}-6-methoxyquinoline-7-carboxamide] | 182 | 0.3 | – | – |
| COc1cc2c(OC[C@H]3NC(=O)[C@H]4[C@@H]3[C@]4(C)F)nccc2cc1C(N)=O [Example 335, 1-{[(1S,2S,5R)-6-fluoro-6-methyl-4-oxo-3-azabicyclo[3.1.0]hex-2-yl]methoxy}-7-methoxyisoquinoline-6-carboxamide] | 746 | 4 | – | – |

— US10329302B2, “Bicyclic-fused heteroaryl or aryl compounds” (Pfizer Inc., priority 2014, dated 2019)
